Measured values: US5741790A, “Azetidines” (Pfizer Inc., priority 1996, dated 1998)

Tests used:
NK2 receptor = target: T1, NK2 receptor (Oryctolagus cuniculus, UniProt P79218); assay: NK2 receptor antagonist activity in vitro: antagonism of contractile effects of [βAla8]NKA(4-10) in rabbit pulmonary artery (Patacchini and Maggi); type: biochemical; settings: agonist [βAla8]NKA(4-10), read-out: pA2, NK2 receptor antagonist activity (converted)
T1 construct: in the rabbit pulmonary artery; from tissue; host or cells: rabbit pulmonary artery
T1 sequence (P79218 1-384): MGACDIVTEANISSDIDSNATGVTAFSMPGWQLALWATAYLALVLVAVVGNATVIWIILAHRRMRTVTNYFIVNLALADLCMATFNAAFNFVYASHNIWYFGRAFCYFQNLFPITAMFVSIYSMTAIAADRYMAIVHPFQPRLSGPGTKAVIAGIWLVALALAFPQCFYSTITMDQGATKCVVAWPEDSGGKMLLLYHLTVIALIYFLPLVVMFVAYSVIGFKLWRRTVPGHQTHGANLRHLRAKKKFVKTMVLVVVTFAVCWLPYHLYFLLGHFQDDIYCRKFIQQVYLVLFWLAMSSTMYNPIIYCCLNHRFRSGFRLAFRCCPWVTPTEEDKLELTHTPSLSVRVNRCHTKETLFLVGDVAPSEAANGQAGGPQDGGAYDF
Text: The NK2 receptor antagonist activity of the compounds of the formula (I) can be tested, in vitro, by testing their ability to antagonise the contractile effects of the selective NK2 receptor agonist [βAla^8 ]NKA(4-10) in the rabbit pulmonary artery, using the method of Patacchini and Maggi, Eur. J. Pharmacol., 236, 31-37 (1993).

human NK2 receptor = target: T2, human NK2 receptor (Homo sapiens, UniProt P21452); assay: NK2 receptor binding: competition with [3H] or [125I]NKA for binding to CHO cell membranes expressing cloned human NK2 receptor; settings: membranes of Chinese hamster ovary cells expressing cloned human NK2 receptor, 90 min, 25° C., read-out: plC50, NK2 receptor binding activity (converted)
T2 construct: expressed in transfected cells; host or cells: Chinese hamster ovary (CHO) cells, membranes
T2 sequence (P21452 1-398): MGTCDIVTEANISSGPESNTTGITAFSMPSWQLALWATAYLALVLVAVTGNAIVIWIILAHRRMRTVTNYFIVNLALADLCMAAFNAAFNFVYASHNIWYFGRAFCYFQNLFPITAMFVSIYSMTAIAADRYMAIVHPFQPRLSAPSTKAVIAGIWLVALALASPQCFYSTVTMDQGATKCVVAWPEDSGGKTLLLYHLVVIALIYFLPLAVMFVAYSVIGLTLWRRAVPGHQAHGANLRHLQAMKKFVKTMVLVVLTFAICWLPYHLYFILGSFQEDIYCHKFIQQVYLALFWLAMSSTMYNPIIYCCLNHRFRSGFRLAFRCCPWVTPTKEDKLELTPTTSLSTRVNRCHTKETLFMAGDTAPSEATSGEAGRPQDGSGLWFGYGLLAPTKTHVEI
Protocol: The affinity of the compounds of formula (I) and their salts for the human NK2 receptor can be tested in vitro by testing their ability to compete with [^3 H] or […] (neurokinin A) for binding to membranes prepared from Chinese hamster ovary cells expressing the cloned human NK2 receptor. In this method, washed Chinese hamster ovary cell membranes are prepared as described for the previous method where IM9 cells are used instead. The membranes are incubated (90 min, 25° C.) with [^3 H] or [^125 I] NKA and with a range of concentrations of the test compound. Non-specific binding was determined in the presence of 10μM NKA.

For `NS(=O)(=O)N1CCN(C2CN(CC[C@]3(c4ccc(Cl)c(Cl)c4)CCC(=O)N(CC4CCCCC4)C3=O)C2)CC1` [Example 3, 3(S)-3-(2-(3-(4-Aminosulphonylpiperazin-1-yl)azetidin-1-yl)ethyl)-1-cyclohexylmethyl-3-(3,4-dichlorophenyl)glutarimide], the Kb (NK2 receptor) was 7.94 nM and the IC50 (human NK2 receptor) was 0.501 nM.
